Experimental data: ChEMBL document CHEMBL5291721, “A preclinical secondary pharmacology resource illuminates target-adverse drug reaction associations of marketed drugs” (Nat Commun, 2023)

How the values were obtained:
Histamine H3 receptor = Histamine H3 receptor (Homo sapiens, UniProt Q9Y5N1)
Endothelin-1 receptor = biological target: T1, Endothelin-1 receptor (Homo sapiens, UniProt P25101)
T1 sequence (P25101 whole entry): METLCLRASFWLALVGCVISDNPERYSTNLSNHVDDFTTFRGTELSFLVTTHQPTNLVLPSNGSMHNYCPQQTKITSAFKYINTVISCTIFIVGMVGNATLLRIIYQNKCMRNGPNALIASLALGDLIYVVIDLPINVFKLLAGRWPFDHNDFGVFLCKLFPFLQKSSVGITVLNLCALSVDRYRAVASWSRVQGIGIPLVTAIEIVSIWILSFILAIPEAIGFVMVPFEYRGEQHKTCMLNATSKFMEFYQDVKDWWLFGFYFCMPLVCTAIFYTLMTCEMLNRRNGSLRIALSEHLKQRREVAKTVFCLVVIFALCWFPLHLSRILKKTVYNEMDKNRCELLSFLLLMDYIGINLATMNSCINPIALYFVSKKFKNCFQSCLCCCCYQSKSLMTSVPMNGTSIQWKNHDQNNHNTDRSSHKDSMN

[1] = biological target: T2, 5-hydroxytryptamine receptor 3A (Homo sapiens, UniProt P46098); type: functional
T2 sequence (P46098 whole entry): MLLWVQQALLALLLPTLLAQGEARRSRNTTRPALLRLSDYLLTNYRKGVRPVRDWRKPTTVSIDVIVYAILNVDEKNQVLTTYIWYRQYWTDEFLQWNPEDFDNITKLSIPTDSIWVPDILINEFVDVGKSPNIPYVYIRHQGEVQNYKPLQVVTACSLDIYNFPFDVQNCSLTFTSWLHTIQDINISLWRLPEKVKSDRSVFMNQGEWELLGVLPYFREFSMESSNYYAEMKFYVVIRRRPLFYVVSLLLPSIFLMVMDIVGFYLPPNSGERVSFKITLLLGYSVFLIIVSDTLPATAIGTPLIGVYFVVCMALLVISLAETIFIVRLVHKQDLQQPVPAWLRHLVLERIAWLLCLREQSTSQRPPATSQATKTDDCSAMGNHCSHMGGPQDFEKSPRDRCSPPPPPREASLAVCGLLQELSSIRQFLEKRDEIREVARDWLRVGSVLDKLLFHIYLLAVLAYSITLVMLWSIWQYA

Vasopressin V1a receptor = Vasopressin V1a receptor (Homo sapiens, UniProt P37288)
[2] = biological target: Gamma-aminobutyric acid receptor subunit alpha-1 (Rattus norvegicus, UniProt P62813); type: functional
[3] = biological target: T3, Alpha-2A adrenergic receptor (Homo sapiens, UniProt P08913); type: functional, cell-based
T3 sequence (P08913 whole entry): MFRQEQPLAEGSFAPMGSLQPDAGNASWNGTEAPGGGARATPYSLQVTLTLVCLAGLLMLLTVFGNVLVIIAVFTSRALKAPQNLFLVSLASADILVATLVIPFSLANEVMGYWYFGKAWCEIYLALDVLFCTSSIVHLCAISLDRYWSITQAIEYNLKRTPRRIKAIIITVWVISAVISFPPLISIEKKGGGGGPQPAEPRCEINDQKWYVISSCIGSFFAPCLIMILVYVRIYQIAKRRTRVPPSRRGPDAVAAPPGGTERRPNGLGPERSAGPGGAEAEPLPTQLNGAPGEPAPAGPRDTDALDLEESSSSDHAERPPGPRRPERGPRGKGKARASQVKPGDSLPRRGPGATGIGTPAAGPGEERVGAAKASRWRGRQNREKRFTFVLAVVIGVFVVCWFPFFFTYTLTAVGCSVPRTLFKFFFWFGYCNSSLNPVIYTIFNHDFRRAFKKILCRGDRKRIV

[4] = biological target: T4, Equilibrative nucleoside transporter 1 (Homo sapiens, UniProt Q99808)
T4 sequence (Q99808 whole entry): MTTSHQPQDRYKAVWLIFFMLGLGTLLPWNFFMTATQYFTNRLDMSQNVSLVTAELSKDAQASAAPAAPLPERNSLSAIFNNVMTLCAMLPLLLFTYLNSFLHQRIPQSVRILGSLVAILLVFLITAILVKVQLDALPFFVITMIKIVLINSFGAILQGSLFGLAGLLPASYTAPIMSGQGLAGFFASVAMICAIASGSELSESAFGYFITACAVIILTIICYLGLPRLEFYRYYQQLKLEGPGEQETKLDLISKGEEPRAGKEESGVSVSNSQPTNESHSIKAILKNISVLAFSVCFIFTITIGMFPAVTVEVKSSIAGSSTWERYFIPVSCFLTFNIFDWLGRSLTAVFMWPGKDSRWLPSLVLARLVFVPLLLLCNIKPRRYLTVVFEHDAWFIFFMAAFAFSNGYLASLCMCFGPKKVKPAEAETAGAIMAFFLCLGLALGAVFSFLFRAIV

Mu-type opioid receptor = Mu-type opioid receptor (Homo sapiens, UniProt P35372); test: biochemical; type: functional
[5] = biological target: Voltage-gated inwardly rectifying potassium channel KCNH2 (Homo sapiens, UniProt Q12809); type: functional; settings: read-out: AC50
D(3) dopamine receptor = D(3) dopamine receptor (Homo sapiens, UniProt P35462)
D(1A) dopamine receptor = D(1A) dopamine receptor (Homo sapiens, UniProt P21728); type: functional, cell-based
[6] = biological target: T5, 5-hydroxytryptamine receptor 1A (Homo sapiens, UniProt P08908); type: functional, cell-based
T5 sequence (P08908 whole entry): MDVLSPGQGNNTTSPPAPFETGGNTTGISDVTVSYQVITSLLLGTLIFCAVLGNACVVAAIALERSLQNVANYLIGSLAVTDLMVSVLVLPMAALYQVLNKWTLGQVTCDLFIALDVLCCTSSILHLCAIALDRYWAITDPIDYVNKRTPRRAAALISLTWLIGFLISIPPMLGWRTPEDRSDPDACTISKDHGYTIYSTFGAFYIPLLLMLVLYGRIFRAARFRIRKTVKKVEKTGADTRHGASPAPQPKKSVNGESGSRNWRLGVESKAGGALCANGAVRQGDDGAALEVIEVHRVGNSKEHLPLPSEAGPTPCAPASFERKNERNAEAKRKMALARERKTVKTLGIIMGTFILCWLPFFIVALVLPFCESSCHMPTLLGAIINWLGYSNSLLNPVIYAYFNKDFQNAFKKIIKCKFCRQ
Note: assay procedure not described here.

D(1A) dopamine receptor, sequence (P21728 whole entry): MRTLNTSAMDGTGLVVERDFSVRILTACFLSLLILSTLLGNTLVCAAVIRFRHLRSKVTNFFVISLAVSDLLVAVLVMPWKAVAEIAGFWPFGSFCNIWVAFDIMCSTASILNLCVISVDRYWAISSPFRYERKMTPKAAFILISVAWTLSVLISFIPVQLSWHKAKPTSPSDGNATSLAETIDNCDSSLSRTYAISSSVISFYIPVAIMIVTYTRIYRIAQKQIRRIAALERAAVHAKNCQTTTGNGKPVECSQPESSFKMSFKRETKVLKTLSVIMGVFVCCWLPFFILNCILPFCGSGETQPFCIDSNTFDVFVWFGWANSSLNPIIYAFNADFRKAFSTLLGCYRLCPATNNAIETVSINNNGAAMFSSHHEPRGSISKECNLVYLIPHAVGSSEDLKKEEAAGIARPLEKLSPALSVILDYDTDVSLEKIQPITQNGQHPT
Vasopressin V1a receptor, sequence (P37288 whole entry): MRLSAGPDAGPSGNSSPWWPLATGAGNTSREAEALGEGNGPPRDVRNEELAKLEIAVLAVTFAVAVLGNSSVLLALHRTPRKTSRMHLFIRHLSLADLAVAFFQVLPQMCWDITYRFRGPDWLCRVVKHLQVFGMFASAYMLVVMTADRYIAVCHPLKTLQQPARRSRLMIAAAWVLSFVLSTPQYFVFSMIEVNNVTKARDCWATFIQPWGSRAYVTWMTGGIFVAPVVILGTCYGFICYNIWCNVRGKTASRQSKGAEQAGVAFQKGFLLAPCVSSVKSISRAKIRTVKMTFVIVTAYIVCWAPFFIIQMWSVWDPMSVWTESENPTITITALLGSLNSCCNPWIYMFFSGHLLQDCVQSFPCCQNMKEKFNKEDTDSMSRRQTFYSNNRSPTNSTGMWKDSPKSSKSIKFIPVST
Gamma-aminobutyric acid receptor subunit alpha-1, sequence (P62813 whole entry): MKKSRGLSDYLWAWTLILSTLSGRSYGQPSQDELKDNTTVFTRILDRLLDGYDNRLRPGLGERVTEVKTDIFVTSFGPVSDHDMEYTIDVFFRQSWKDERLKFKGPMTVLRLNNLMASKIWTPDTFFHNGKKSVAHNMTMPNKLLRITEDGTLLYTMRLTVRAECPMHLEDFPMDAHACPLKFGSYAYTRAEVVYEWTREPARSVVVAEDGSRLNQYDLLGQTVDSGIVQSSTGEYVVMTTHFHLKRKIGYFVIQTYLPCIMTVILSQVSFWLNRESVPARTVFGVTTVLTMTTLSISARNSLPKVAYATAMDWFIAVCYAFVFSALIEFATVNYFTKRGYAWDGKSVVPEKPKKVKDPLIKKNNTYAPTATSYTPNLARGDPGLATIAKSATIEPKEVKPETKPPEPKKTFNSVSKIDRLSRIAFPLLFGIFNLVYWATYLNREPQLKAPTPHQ
D(3) dopamine receptor, sequence (P35462 whole entry): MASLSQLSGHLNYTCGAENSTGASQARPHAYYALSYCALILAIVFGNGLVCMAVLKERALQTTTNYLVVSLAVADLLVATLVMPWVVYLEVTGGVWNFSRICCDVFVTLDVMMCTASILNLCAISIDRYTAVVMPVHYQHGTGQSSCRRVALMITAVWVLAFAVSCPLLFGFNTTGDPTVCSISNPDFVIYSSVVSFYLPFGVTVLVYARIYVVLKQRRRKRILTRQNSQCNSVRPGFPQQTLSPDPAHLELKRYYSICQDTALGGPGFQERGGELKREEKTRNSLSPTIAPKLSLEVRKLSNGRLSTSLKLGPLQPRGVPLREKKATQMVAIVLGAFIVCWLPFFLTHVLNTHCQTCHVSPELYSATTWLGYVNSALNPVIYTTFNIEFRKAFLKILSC
Histamine H3 receptor, sequence (Q9Y5N1 whole entry): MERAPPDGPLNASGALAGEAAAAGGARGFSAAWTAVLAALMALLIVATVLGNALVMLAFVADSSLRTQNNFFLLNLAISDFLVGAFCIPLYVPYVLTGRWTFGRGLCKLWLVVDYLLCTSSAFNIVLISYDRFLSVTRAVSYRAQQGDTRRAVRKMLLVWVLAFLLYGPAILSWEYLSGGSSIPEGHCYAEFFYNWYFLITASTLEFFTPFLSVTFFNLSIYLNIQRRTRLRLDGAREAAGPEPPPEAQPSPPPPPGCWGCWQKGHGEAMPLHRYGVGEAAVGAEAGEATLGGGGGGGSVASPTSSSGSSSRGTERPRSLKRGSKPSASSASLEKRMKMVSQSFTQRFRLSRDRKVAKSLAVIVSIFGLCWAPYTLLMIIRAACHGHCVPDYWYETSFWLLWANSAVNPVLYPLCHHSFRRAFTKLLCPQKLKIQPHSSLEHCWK
Mu-type opioid receptor, sequence (P35372 whole entry): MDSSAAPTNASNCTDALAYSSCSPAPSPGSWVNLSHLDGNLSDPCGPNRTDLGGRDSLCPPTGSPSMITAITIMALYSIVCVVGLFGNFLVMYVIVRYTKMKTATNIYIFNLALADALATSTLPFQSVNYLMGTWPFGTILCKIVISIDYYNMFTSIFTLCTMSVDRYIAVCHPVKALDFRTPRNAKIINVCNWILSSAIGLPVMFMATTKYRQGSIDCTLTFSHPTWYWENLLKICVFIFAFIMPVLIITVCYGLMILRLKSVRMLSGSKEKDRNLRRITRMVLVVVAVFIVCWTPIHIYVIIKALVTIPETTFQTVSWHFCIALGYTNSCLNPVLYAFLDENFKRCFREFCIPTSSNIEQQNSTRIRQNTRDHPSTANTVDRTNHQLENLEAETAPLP
Voltage-gated inwardly rectifying potassium channel KCNH2, sequence (Q12809 whole entry): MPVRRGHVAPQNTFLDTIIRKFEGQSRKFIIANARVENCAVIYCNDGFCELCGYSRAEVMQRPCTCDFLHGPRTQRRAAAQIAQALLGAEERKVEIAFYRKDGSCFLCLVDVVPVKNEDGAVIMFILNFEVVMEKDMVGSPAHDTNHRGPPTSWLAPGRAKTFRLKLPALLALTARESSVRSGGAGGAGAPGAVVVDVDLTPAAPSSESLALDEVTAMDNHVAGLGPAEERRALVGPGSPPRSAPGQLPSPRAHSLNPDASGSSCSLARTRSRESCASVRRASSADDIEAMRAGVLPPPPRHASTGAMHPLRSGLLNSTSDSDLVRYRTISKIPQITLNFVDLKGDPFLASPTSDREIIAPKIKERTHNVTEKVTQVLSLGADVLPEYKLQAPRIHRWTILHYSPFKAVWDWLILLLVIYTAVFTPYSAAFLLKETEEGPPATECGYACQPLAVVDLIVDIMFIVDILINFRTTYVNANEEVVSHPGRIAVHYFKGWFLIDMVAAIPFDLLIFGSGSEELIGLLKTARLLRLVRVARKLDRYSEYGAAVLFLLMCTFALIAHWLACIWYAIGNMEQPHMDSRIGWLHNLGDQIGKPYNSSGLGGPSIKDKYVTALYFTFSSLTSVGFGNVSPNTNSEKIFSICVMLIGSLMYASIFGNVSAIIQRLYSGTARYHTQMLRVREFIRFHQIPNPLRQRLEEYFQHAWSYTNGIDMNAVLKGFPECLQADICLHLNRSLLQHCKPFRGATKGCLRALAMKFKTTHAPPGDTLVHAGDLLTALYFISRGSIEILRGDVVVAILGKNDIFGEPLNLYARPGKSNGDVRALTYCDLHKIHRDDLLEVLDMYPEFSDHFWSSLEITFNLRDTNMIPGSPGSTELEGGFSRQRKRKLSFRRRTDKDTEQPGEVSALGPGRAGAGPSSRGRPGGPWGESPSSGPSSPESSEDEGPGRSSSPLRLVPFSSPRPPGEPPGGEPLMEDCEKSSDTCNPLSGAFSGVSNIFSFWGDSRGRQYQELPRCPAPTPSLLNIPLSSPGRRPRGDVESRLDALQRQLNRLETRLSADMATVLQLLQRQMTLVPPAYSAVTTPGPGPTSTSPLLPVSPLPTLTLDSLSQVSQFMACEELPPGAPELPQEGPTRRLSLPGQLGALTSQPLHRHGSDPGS

| AC50 (Histamine H3 receptor) | AC50 (Endothelin-1 receptor) | AC50 [1] | AC50 (Vasopressin V1a receptor) | AC50 [2] | AC50 [3] | AC50 [4] | AC50 (Mu-type opioid receptor) | AC50 (D(3) dopamine receptor) | AC50 (D(1A) dopamine receptor) | AC50 [6] | SMILES | AC50 [5] |
| --- | --- | --- | --- | --- | --- | --- | --- | --- | --- | --- | --- | --- |
| > 30 µM | > 30 µM | > 30 µM | > 30 µM | > 30 µM | > 30 µM | > 30 µM | > 30 µM | > 30 µM |  |  | C=C[C@@]1(C)CC(=O)[C@]2(O)[C@@]3(C)[C@@H](O)CCC(C)(C)[C@@H]3[C@H](OC(=O)CCN(C)C)[C@H](OC(C)=O)[C@@]2(C)O1 | 7.8 µM |
| > 30 µM | > 30 µM | > 30 µM |  | > 30 µM | > 30 µM |  | > 30 µM | > 30 µM | > 30 µM |  | Nc1ccc(C(=O)O)c(O)c1 [AMINOSALICYLIC ACID] | > 30 µM |
| > 30 µM | > 30 µM | > 30 µM | > 30 µM | > 30 µM | 0.735 µM | > 30 µM | > 30 µM | 14.4 µM | > 30 µM |  | CCN(CC)C(=O)C1CN2CCc3cc(OC)c(OC)cc3C2CC1OC(C)=O (stereo unspecified) [BENZQUINAMIDE] | > 30 µM |
| > 30 µM | > 30 µM |  | > 30 µM |  | > 30 µM | > 30 µM | > 30 µM |  | > 30 µM |  | C=CC1=C(C(=O)O)N2C(=O)[C@@H](NC(=O)/C(=N\OCC(=O)O)c3csc(N)n3)[C@H]2SC1 [CEFIXIME] | > 30 µM |
| > 30 µM | > 30 µM | > 30 µM | > 30 µM | > 30 µM | > 30 µM | > 30 µM | > 30 µM | > 30 µM | > 30 µM |  | CCC(C)(Oc1ccc(C2(c3ccc(OC(C)(CC)C(=O)O)cc3)CCCCC2)cc1)C(=O)O (stereo unspecified) [CLINOFIBRATE] | > 30 µM |
| 18 µM | > 30 µM | 12.8 µM | 3.6 µM | > 30 µM |  | 14.3 µM | > 30 µM | 17.9 µM | > 30 µM |  | COc1cccc2c1C(=O)c1c(O)c3c(c(O)c1C2=O)C[C@@](O)(C(C)=O)C[C@@H]3O[C@H]1C[C@H](N)[C@H](O)[C@H](C)O1 [DAUNORUBICIN] | > 30 µM |
| > 30 µM | > 30 µM | > 30 µM | > 30 µM | > 30 µM | > 30 µM | > 30 µM | > 30 µM | > 30 µM | > 30 µM |  | CCCCC[C@H](O)/C=C/[C@H]1[C@H](O)CC(=O)[C@@H]1C/C=C\CCCC(=O)O [DINOPROSTONE] | > 30 µM |
| > 30 µM | > 30 µM | > 30 µM | > 30 µM | > 30 µM | > 30 µM | > 30 µM | > 30 µM | > 30 µM | > 30 µM |  | CC(C)c1cc2c(cc1S(=O)(=O)O)[C@@]1(C)CCC[C@@](C)(C(=O)O)[C@@H]1CC2 [ECABET] | > 30 µM |
| > 10 µM | > 30 µM | > 30 µM | > 10 µM | > 10 µM | > 10 µM | > 30 µM |  | > 10 µM | > 10 µM | > 10 µM | CC(=O)OCC(CCn1cnc2cnc(N)nc21)COC(C)=O [FAMCICLOVIR] | > 30 µM |
| > 10 µM | > 30 µM | > 10 µM | > 10 µM | > 10 µM | > 10 µM | 21.9 µM |  | > 10 µM | > 30 µM | > 10 µM | COC1=C(OC)C(=O)C(CCCCCCCCCCO)=C(C)C1=O [IDEBENONE] | > 30 µM |
| > 30 µM | > 30 µM | > 30 µM | > 30 µM | > 30 µM | 28 µM |  | > 30 µM | > 30 µM | > 30 µM |  | Cc1ccc2c(-c3ccccc3)nc(=O)n(C(C)C)c2c1 [PROQUAZONE] | > 30 µM |
| > 30 µM | > 30 µM | > 30 µM | > 30 µM | > 30 µM |  | > 30 µM | > 30 µM | > 30 µM | > 30 µM |  | Cc1cc2nc3c(=O)[nH]c(=O)nc-3n(C[C@H](O)[C@H](O)[C@H](O)COP(=O)(O)O)c2cc1C [RIBOFLAVIN 5'-PHOSPHATE] |  |
| > 30 µM | > 30 µM | > 30 µM | > 30 µM | > 30 µM | > 30 µM |  | > 30 µM | > 30 µM | > 30 µM |  | CN1CCN(c2c(F)cc3c(=O)c(C(=O)O)cn4c3c2SCC4)CC1 [RUFLOXACIN] | > 30 µM |
| > 30 µM | > 30 µM |  |  | 0.5 µM | > 30 µM |  | > 30 µM | > 30 µM | > 30 µM |  | CN1[C@@H]2CC[C@H]1C[C@@H](OC(=O)c1c[nH]c3ccccc13)C2 [TROPISETRON] | 0.95 µM |
| 2.1 µM | > 30 µM | > 30 µM | > 30 µM | > 30 µM | 2.1 µM | > 30 µM | > 30 µM | 20 µM | > 30 µM |  | COc1cc2c(Nc3ccc(Br)cc3F)ncnc2cc1OCC1CCN(C)CC1 [VANDETANIB] |  |
| > 10 µM |  | > 30 µM | > 30 µM | > 30 µM | > 30 µM | > 30 µM | > 30 µM | > 30 µM | > 30 µM |  | N#C[C@@H]1CCCN1C(=O)CNC12CC3CC(CC(O)(C3)C1)C2 [VILDAGLIPTIN] | > 30 µM |

| SMILES | AC50 (Histamine H3 receptor) | AC50 (Endothelin-1 receptor) | AC50 [1] | AC50 (Vasopressin V1a receptor) | AC50 [2] | AC50 [3] | AC50 [4] | AC50 (Mu-type opioid receptor) | AC50 (D(3) dopamine receptor) | AC50 (D(1A) dopamine receptor) | AC50 [6] | AC50 [5] |
| --- | --- | --- | --- | --- | --- | --- | --- | --- | --- | --- | --- | --- |
| CC(CCc1ccccc1)NC(C)C(O)c1ccc(O)cc1 (stereo unspecified) [NYLIDRIN] | > 10 µM | > 30 µM | > 10 µM | > 10 µM | > 10 µM | 19 µM | > 30 µM |  | 1.3 µM | > 10 µM | 12 µM | 6.3 µM |
